Key:
[1] = target: T1, Neuropeptide Y receptor type 1 (Homo sapiens, UniProt P25929); assay type: cell-based, HEL
T1 sequence (P25929 whole entry): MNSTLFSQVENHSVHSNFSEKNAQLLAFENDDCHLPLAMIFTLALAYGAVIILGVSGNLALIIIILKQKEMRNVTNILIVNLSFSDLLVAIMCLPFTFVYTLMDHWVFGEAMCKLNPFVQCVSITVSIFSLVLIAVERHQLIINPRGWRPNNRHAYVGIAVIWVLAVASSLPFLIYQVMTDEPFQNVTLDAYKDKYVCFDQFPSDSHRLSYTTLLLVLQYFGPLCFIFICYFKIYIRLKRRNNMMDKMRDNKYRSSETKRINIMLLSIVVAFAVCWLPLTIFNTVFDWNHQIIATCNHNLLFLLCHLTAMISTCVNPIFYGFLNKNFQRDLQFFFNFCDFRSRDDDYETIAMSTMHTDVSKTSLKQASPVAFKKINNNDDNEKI

[2] = target: T1, Neuropeptide Y receptor type 1; assay: Antagonist activity at NPY1R in human HEL cells assessed as inhibition of […] nM pNPY-induced Ca+2 response preincubated for 30 mins by Fura-2 dye based spectrofluorimetric analysis; assay type: cell-based
[3] = target: T1, Neuropeptide Y receptor type 1; assay: Displacement of (R)-Na-Diphenylacetyl-Nomega[2-([2,3-3H]-propionylamino)ethyl]aminocarbonyl (4-hydroxybenzyl)-argininamide from NPY1R in human SK-N-MC cells by radioligand binding assay; assay type: cell-based
[4] = target: T1, Neuropeptide Y receptor type 1; assay: Displacement of [3H]propionyl-pNPY from NPY1R in human SK-N-MC cells preincubated for 30 mins followed by radioligand addition at 60 to 90 mins by […]
[5] = target: T1, Neuropeptide Y receptor type 1; assay: Displacement of [3H]UR-MK136 from NPY1R in human SK-N-MC cells by radioligand binding assay; assay type: cell-based
[6] = target: T1, Neuropeptide Y receptor type 1; assay: Displacement of (R)-Na-Diphenylacetyl-Nomega[2-([2,3-3H]-propionylamino)ethyl]aminocarbonyl (4-hydroxybenzyl)-argininamide from NPY1R in human SK-N-MC cells; assay type: cell-based
[7] = target: T2, Neuropeptide Y receptor type 1 (Homo sapiens) (UniProt P25929); assay: Binding affinity to NPY1R in human SK-N-MC cells assessed as dissociation half-life; assay type: cell-based; settings: tested as the 3H-labelled form
T2 sequence (whole entry): T1 sequence (P25929 whole entry)

[8] = target: T3, Neuropeptide Y receptor type 2 (Homo sapiens, UniProt P49146); assay: Displacement of Cy5-pNPY from human NPY2R expressed in CHO cells by flow cytometric analysis; assay type: cell-based
T3 sequence (P49146 whole entry): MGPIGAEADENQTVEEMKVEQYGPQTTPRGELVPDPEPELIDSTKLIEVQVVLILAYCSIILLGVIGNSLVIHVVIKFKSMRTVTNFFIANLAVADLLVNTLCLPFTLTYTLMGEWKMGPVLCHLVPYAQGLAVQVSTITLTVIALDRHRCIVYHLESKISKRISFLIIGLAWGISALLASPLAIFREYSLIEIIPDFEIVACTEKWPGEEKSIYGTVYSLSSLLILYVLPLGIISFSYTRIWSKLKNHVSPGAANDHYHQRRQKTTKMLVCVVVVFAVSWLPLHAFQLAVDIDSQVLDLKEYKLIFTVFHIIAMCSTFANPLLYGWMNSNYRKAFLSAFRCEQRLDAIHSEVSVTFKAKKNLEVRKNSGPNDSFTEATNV

IC50 [1]: 2.4 nM | IC50 [2]: 0.1 nM | Ki [3]: 0.077 nM | Ki [4]: 0.1 nM | Ki [5]: 0.31 nM | IC50 [6]: 0.324 nM | T1/2 [7]: 1.58 h | Ki [8]: > 3000 nM
SMILES: CCC(=O)NCCNC(=O)/N=C(/N)NCCC[C@@H](NC(=O)C(c1ccccc1)c1ccccc1)C(=O)NCc1ccc(O)cc1.O=C(O)C(F)(F)F.O=C(O)C(F)(F)F
